# Source: US6559182B1 (Purcell Jojoba International, LLC, priority 2001, dated 2003)
# Tested on: Herpes simplex (HSV1 facial herpes or HSV2 genital herpes)
# Assay: Survey of Herpes simplex patients who treated themselves with jojoba oil esters
# Assay type: in vivo, human
# Details: jojoba oil esters compared with the previously used medication
# Source text: The study included male and female subjects with a history of multiple Herpes simplex infections that were either HSV1 facial herpes or HSV2 genital herpes. There was non intentional discrimination as to age, sex, and educational or ethnic background.
# In this study 57 subjects compared jojoba oil ester treatment with previously used remedies, including no treatment at all. Each subject was given directions as to how to apply the jojoba oil esters. Subjects were advised to begin treatment at the very earliest warning symptoms of burning, itching or tingling that precede a new cold sore outbreak. They were directed to apply one drop of the solution to the herpes area with their finger, then reapply it again in 15 minutes and at mealtimes and bedtime for three days.
# The study utilized a survey sheet that included the average number of outbreaks per year in the past, time and date of this new outbreak and how many hours after the first symptoms before treatment was started. Subjects reported the number of doses applied, and the number of days from the onset until they were free of symptoms. They also rated the effectiveness of this treatment compared to previous remedies they had used.
Compound,% reporting jojoba Ester more Effective [%],JOE a little More effective (number of patients who had used this Rx),JOE a little less effective (number of patients who had used this Rx),JOE avg effective (number of patients who had used this Rx),JOE much more effective (number of patients who had used this Rx)
"Nc1nc2c(ncn2COCCO)c(=O)[nH]1 [Acyclovir/Zovirax, Acyclovir]",84,2,1,2,14
CC(=O)Oc1ccccc1C(=O)O [Aspirin],100,–,–,–,1
C[S+](C)[O-] [DMSO],100,1,–,–,–
CC(=O)OCC(CCn1cnc2cnc(N)nc21)COC(C)=O [Famavir],100,–,–,–,1
OO [Hydrogen peroxide],100,1,–,–,1
NCCCC[C@H](N)C(=O)O [Lycine],67,–,–,2,4
CC(C)[C@H](N)C(=O)OCCOCn1cnc2c(=O)[nH]c(N)nc21 [Valtrex],100,1,–,–,1
CC[C@H]1OC(=O)[C@H](C)[C@@H](O[C@H]2C[C@@](C)(OC)[C@@H](O)[C@H](C)O2)[C@H](C)[C@@H](O[C@@H]2O[C@H](C)C[C@H](N(C)C)[C@H]2O)[C@](C)(O)C[C@@H](C)CN(C)[C@H](C)[C@@H](O)[C@]1(C)O [Zithromax],100,–,–,–,1
